Measured values taken from ChEMBL document CHEMBL1909046, “DrugMatrix in vitro pharmacology data”.

Experiments:
[1] = target: T1, Muscarinic acetylcholine receptor M5 (Homo sapiens, UniProt P08912); assay type: cell membranes, CHO-K1, Membrane; conditions: cho-k1; also: in other assays of this panel Not Active means under 50% inhibition at 10 µM
T1 sequence (P08912 whole entry): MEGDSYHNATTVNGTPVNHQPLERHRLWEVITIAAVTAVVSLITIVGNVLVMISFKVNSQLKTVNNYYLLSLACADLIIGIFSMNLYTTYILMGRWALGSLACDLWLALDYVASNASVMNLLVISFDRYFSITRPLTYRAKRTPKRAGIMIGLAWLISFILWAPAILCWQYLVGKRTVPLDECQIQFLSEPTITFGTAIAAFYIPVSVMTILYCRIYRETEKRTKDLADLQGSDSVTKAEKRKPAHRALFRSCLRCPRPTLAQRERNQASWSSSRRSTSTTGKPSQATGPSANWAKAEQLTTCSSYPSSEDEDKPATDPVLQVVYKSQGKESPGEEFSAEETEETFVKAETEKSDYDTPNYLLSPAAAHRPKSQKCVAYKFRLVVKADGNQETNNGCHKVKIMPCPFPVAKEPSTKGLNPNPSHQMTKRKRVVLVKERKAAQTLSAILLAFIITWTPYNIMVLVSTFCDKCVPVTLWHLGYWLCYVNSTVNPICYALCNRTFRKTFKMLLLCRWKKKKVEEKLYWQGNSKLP

[2] = DRUGMATRIX: GABAA, Chloride Channel, TBOB radioligand binding (ligand: [3H] TBOB); assay type: cell membranes, Rattus norvegicus, Wistar, Cerebral cortex, Membrane; conditions: Not Active = under 50% inhibition at 10 µM
[3] = target: Melanocortin receptor 4 (Homo sapiens, UniProt P32245); assay type: cell membranes, Membrane; conditions: hek293; also: in other assays of this panel Not Active means under 50% inhibition at 10 µM
[4] = target: Aldo-keto reductase family 1 member B1 (Rattus norvegicus, UniProt P07943); assay type: tissue-based, Lens of camera-type eye;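 also: inhibition of aldose reductase enzyme activity, measured with DL-glyceraldehyde as the substrate; in other assays of this panel Not Active means under 50% inhibition at 10 µM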
[5] = DRUGMATRIX: Platelet-Derived Growth Factor (PDGF) radioligand binding (ligand: [125I] PDGF); assay type: cell-based; conditions: nih3t3; Not Active = under 50% inhibition at 10 µM
[6] = target: T2, 5-hydroxytryptamine receptor 2C (Homo sapiens, UniProt P28335); assay: DRUGMATRIX: Serotonin (5-Hydroxytryptamine) 5-HT2C radioligand binding (ligand: [3H] Mesulergine); assay type: cell membranes, CHO-K1, Membrane; conditions: cho-k1; Not Active = under 50% inhibition at 10 µM
T2 sequence (P28335 whole entry): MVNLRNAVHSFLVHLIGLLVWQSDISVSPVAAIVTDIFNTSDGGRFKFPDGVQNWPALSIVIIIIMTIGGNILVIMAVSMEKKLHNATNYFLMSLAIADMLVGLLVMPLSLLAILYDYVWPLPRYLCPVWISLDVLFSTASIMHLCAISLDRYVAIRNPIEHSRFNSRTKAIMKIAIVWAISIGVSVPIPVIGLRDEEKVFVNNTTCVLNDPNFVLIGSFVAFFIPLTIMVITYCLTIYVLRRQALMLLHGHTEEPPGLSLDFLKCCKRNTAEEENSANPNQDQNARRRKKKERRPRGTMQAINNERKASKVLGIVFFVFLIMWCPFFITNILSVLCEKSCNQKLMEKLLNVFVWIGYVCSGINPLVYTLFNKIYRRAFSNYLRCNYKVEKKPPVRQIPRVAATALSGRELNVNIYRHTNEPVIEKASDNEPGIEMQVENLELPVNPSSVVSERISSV

[7] = DRUGMATRIX: Nicotinic Acetylcholine radioligand binding (ligand: [125I] Epibatidine); assay type: cell membranes, Membrane; conditions: imr-32; Not Active = under 50% inhibition at 10 µM
[8] = DRUGMATRIX: Glutamate, NMDA, Agonism radioligand binding (ligand: [3H] CGP-39653); assay type: cell membranes, Rattus norvegicus, Wistar, Cerebral cortex, Membrane; conditions: Not Active = under 50% inhibition at 10 µM
[9] = target: T3, Substance-K receptor (Homo sapiens, UniProt P21452); assay type: cell membranes, CHO, Membrane; conditions: cho; also: in other assays of this panel Not Active means under 50% inhibition at 10 µM
T3 sequence (P21452 whole entry): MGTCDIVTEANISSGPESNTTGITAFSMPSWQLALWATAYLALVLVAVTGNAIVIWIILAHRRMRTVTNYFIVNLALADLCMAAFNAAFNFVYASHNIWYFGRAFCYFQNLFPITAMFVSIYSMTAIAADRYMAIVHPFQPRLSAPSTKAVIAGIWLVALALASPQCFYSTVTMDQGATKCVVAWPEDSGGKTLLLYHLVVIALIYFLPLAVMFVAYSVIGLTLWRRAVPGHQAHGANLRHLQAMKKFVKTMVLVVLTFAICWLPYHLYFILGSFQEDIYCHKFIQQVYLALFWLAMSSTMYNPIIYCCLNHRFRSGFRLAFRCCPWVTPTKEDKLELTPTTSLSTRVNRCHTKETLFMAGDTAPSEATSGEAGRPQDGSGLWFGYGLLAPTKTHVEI

[10] = DRUGMATRIX: Imidazoline I2, Central radioligand binding (ligand: [3H] Idazoxan); assay type: cell membranes, Rattus norvegicus, Wistar, Cerebral cortex, Membrane; conditions: Not Active = under 50% inhibition at 10 µM
[11] = target: T4, Adenosine receptor A1 (Homo sapiens, UniProt P30542); assay type: cell membranes, CHO, Membrane; conditions: cho
T4 sequence (P30542 whole entry): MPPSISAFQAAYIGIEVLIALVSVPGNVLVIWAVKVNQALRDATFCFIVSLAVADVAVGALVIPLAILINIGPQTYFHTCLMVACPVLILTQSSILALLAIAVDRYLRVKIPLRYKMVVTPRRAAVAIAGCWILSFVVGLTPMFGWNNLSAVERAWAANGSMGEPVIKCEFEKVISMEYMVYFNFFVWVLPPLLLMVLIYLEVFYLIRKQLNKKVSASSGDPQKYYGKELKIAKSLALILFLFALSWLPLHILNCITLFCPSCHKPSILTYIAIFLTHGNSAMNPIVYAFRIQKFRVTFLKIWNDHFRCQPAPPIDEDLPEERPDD

[12] = target: T5, Alpha-1A adrenergic receptor (Rattus norvegicus, UniProt P43140); assay: DRUGMATRIX: Alpha-1A adrenergic receptor radioligand binding (ligand: prazosin); assay type: cell membranes, Wistar, Submaxillary gland, Membrane; conditions: Not Active = under 50% inhibition at 10 µM
T5 sequence (P43140 whole entry): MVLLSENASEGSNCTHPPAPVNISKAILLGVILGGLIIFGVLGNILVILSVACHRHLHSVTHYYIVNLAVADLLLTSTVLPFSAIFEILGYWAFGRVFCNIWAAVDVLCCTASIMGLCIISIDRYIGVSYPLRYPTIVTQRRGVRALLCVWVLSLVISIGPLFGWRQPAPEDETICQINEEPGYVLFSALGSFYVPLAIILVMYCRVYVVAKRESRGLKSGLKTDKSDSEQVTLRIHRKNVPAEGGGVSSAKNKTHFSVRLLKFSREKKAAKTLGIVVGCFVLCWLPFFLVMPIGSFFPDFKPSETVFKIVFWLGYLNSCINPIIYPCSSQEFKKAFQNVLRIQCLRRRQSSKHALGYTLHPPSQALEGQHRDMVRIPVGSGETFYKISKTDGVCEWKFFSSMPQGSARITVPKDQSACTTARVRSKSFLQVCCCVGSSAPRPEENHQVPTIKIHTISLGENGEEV

Melanocortin receptor 4, sequence (P32245 whole entry): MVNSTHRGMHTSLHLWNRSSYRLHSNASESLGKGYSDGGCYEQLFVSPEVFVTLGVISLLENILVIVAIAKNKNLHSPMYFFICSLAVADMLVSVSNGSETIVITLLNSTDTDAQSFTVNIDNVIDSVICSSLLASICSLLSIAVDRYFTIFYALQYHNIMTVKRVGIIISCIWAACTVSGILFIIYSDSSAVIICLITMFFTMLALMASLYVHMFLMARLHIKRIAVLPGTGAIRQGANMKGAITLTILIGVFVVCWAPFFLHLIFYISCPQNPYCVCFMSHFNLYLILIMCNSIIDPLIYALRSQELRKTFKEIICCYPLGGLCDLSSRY

Cc1cc(NS(=O)(=O)c2ccc(N)cc2)no1 [SULFAMETHOXAZOLE]
Not Active: IC50 [1] | IC50 [2] | Ki [2] | IC50 [3] | IC50 [4] | IC50 [5] | Ki [5] | IC50 [6] | IC50 [7] | Ki [7] | IC50 [8] | Ki [8] | IC50 [9] | IC50 [10] | Ki [10] | IC50 [11] | IC50 [12]

CC1=C(/C=C/C(C)=C/C=C/C(C)=C\C(=O)O)C(C)(C)CCC1 [ISOTRETINOIN]
Not Active: IC50 [1] | IC50 [2] | Ki [2] | IC50 [3] | IC50 [4] | IC50 [5] | Ki [5] | IC50 [6] | IC50 [7] | Ki [7] | IC50 [8] | Ki [8] | IC50 [9] | IC50 [10] | Ki [10] | IC50 [11] | IC50 [12]

C[C@]12Cc3c[nH]nc3C[C@@H]1CC[C@@H]1[C@@H]2CC[C@@]2(C)[C@H]1CC[C@]2(C)O [STANOZOLOL]
Not Active: IC50 [1] | IC50 [2] | Ki [2] | IC50 [3] | IC50 [4] | IC50 [5] | Ki [5] | IC50 [6] | IC50 [7] | Ki [7] | IC50 [8] | Ki [8] | IC50 [9] | IC50 [10] | Ki [10] | IC50 [11] | IC50 [12]

NCCCC[C@H](N[C@@H](CCc1ccccc1)C(=O)O)C(=O)N1CCC[C@H]1C(=O)O [LISINOPRIL ANHYDROUS]
Not Active: IC50 [1] | IC50 [2] | Ki [2] | IC50 [3] | IC50 [4] | IC50 [5] | Ki [5] | IC50 [6] | IC50 [7] | Ki [7] | IC50 [8] | Ki [8] | IC50 [9] | IC50 [10] | Ki [10] | IC50 [11] | IC50 [12]

CC(=O)S[C@@H]1CC2=CC(=O)CC[C@]2(C)[C@H]2CC[C@@]3(C)[C@@H](CC[C@@]34CCC(=O)O4)[C@H]12 [SPIRONOLACTONE]
Not Active: IC50 [1] | IC50 [2] | Ki [2] | IC50 [3] | IC50 [4] | IC50 [5] | Ki [5] | IC50 [6] | IC50 [7] | Ki [7] | IC50 [8] | Ki [8] | IC50 [9] | IC50 [10] | Ki [10] | IC50 [11] | IC50 [12]

CN(C)[C@@H]1C(O)=C(C(N)=O)C(=O)[C@@]2(O)C(O)=C3C(=O)c4c(O)cccc4[C@@](C)(O)[C@H]3C[C@@H]12 [TETRACYCLINE]
Not Active: IC50 [1] | IC50 [2] | Ki [2] | IC50 [3] | IC50 [4] | IC50 [5] | Ki [5] | IC50 [6] | IC50 [7] | Ki [7] | IC50 [8] | Ki [8] | IC50 [9] | IC50 [10] | Ki [10] | IC50 [11] | IC50 [12]

Nc1ccc(S(=O)(=O)Nc2ccnn2-c2ccccc2)cc1 [SULFAPHENAZOLE]
Not Active: IC50 [1] | IC50 [2] | Ki [2] | IC50 [3] | IC50 [4] | IC50 [5] | Ki [5] | IC50 [6] | IC50 [7] | Ki [7] | IC50 [8] | Ki [8] | IC50 [9] | IC50 [10] | Ki [10] | IC50 [11] | IC50 [12]

COc1c(C)c2c(c(O)c1C/C=C(\C)CCC(=O)OCCN1CCOCC1)C(=O)OC2 [MYCOPHENOLATE MOFETIL]
Not Active: IC50 [1] | IC50 [2] | Ki [2] | IC50 [3] | IC50 [4] | IC50 [5] | Ki [5] | IC50 [6] | IC50 [7] | Ki [7] | IC50 [8] | Ki [8] | IC50 [9] | IC50 [10] | Ki [10] | IC50 [11] | IC50 [12]
